Experimental data published in US20260027116A1, “Methods of Treating Chronic Graft-Versus-Host Disease Following Allogeneic Hematopoietic Stem Cell Transplantation” (Kadmon Corporation, LLC, priority 2022, published 2026).

Test system: patients with cGVHD

CC(C)NC(=O)COc1cccc(-c2nc(Nc3ccc4[nH]ncc4c3)c3ccccc3n2)c1 [Belumosudil, 2-{3-[4-(1H-indazol-5-ylamino)-2-quinazolinyl]phenoxy}-N-(propan-2-yl) acetamide]
6 (38): All grade Dyspnea, No. (%) (Cohort 2 200 mg BID)
16: Upper respiratory tract infection: # Events (Cohort 1 200 mg QD)
0/16 (0%): Abdominal distension: Affected/At Risk (%) (Cohort 2 200 mg BID) | Acute respiratory distress syndrome: Affected/At Risk (%) (Cohort 2 200 mg BID) | Adrenal insufficiency: Affected/At Risk (%) (Cohort 2 200 mg BID) | Anal incontinence: Affected/At Risk (%) (Cohort 2 200 mg BID) | Atelectasis: Affected/At Risk (%) (Cohort 2 200 mg BID) | Benign prostatic hyperplasia: Affected/At Risk (%) (Cohort 2 200 mg BID) | Blepharitis: Affected/At Risk (%) (Cohort 2 200 mg BID) | Blood cholesterol increased: Affected/At Risk (%) (Cohort 2 200 mg BID) | Blood creatine phosphokinase increased: Affected/At Risk (%) (Cohort 2 200 mg BID) | Blood loss anaemia: Affected/At Risk (%) (Cohort 2 200 mg BID) | Bronchitis: Affected/At Risk (%) (Cohort 2 200 mg BID)
4/16 (25%): Anaemia: Affected/At Risk (%) (Cohort 2 200 mg BID)
2 (13): All grade Hypertension, No. (%) (Cohort 2 200 mg BID)
4: Vomiting: # Events (Cohort 1 200 mg QD) | Abdominal pain: # Events (Cohort 2 200 mg BID) | Alanine aminotransferase increased: # Events (Cohort 2 200 mg BID)
3/16: All-Cause Mortality, Affected/At Risk (Cohort 2 200 mg BID)
2/16 (12.5%): Abdominal pain: Affected/At Risk (%) (Cohort 2 200 mg BID) | Acute kidney injury: Affected/At Risk (%) (Cohort 2 200 mg BID) | Anxiety: Affected/At Risk (%) (Cohort 2 200 mg BID) | Aspartate aminotransferase increased: Affected/At Risk (%) (Cohort 2 200 mg BID) | Back pain: Affected/At Risk (%) (Cohort 2 200 mg BID) | Blister: Affected/At Risk (%) (Cohort 2 200 mg BID)
4 (25): All grade Cough, No. (%) (Cohort 2 200 mg BID) | All grade Nausea, No. (%) (Cohort 2 200 mg BID) | All grade Peripheral edema, No. (%) (Cohort 2 200 mg BID)
3: Tremor: # Events (Cohort 1 200 mg QD) | Anxiety: # Events (Cohort 2 200 mg BID) | Blister: # Events (Cohort 2 200 mg BID)
16 (100): Any AE, No. (%) (Cohort 2 200 mg BID)
5 (29%) participants: TESAE, participants (%) (Cohort 1 200 mg QD)
3 (19): All grade Fatigue, No. (%) (Cohort 2 200 mg BID) | All grade Headache, No. (%) (Cohort 2 200 mg BID)
9: Weight increased: # Events (Cohort 1 200 mg QD)
0: Rash erythematous: # Events (Cohort 1 200 mg QD) | Rash pustular: # Events (Cohort 1 200 mg QD) | Red blood cells urine positive: # Events (Cohort 1 200 mg QD) | Renal failure: # Events (Cohort 1 200 mg QD) | Respiratory syncytial virus infection: # Events (Cohort 1 200 mg QD) | Restless legs syndrome: # Events (Cohort 1 200 mg QD) | Rosacea: # Events (Cohort 1 200 mg QD) | Skin abrasion: # Events (Cohort 1 200 mg QD) | Skin lesion: # Events (Cohort 1 200 mg QD) | Squamous cell carcinoma of skin: # Events (Cohort 1 200 mg QD) | Superior vena cava syndrome: # Events (Cohort 1 200 mg QD) | Tachycardia: # Events (Cohort 1 200 mg QD) | Tendonitis: # Events (Cohort 1 200 mg QD) | Thrombocytopenia: # Events (Cohort 1 200 mg QD) | Tinea pedis: # Events (Cohort 1 200 mg QD) | Tooth fracture: # Events (Cohort 1 200 mg QD) | Ulcerative keratitis: # Events (Cohort 1 200 mg QD) | Upper-airway cough syndrome: # Events (Cohort 1 200 mg QD) | Urinary retention: # Events (Cohort 1 200 mg QD) | Urinary tract infection: # Events (Cohort 1 200 mg QD) | Urinary tract pain: # Events (Cohort 1 200 mg QD) | Vascular access complication: # Events (Cohort 1 200 mg QD) | Vision blurred: # Events (Cohort 1 200 mg QD) | Abdominal distension: # Events (Cohort 2 200 mg BID) | Acute respiratory distress syndrome: # Events (Cohort 2 200 mg BID) | Adrenal insufficiency: # Events (Cohort 2 200 mg BID) | Anal incontinence: # Events (Cohort 2 200 mg BID) | Atelectasis: # Events (Cohort 2 200 mg BID) | Benign prostatic hyperplasia: # Events (Cohort 2 200 mg BID) | Blepharitis: # Events (Cohort 2 200 mg BID) | Blood cholesterol increased: # Events (Cohort 2 200 mg BID) | Blood creatine phosphokinase increased: # Events (Cohort 2 200 mg BID) | Blood loss anaemia: # Events (Cohort 2 200 mg BID) | Bronchitis: # Events (Cohort 2 200 mg BID)
(18.75%): All-Cause Mortality, % (Cohort 2 200 mg BID)
9/17 (52.94%): Upper respiratory tract infection: Affected/At Risk (%) (Cohort 1 200 mg QD)
0/17 (0%): Rash erythematous: Affected/At Risk (%) (Cohort 1 200 mg QD) | Rash pustular: Affected/At Risk (%) (Cohort 1 200 mg QD) | Red blood cells urine positive: Affected/At Risk (%) (Cohort 1 200 mg QD) | Renal failure: Affected/At Risk (%) (Cohort 1 200 mg QD) | Respiratory syncytial virus infection: Affected/At Risk (%) (Cohort 1 200 mg QD) | Restless legs syndrome: Affected/At Risk (%) (Cohort 1 200 mg QD) | Rosacea: Affected/At Risk (%) (Cohort 1 200 mg QD) | Skin abrasion: Affected/At Risk (%) (Cohort 1 200 mg QD) | Skin lesion: Affected/At Risk (%) (Cohort 1 200 mg QD) | Squamous cell carcinoma of skin: Affected/At Risk (%) (Cohort 1 200 mg QD) | Superior vena cava syndrome: Affected/At Risk (%) (Cohort 1 200 mg QD) | Tachycardia: Affected/At Risk (%) (Cohort 1 200 mg QD) | Tendonitis: Affected/At Risk (%) (Cohort 1 200 mg QD) | Thrombocytopenia: Affected/At Risk (%) (Cohort 1 200 mg QD) | Tinea pedis: Affected/At Risk (%) (Cohort 1 200 mg QD) | Tooth fracture: Affected/At Risk (%) (Cohort 1 200 mg QD) | Ulcerative keratitis: Affected/At Risk (%) (Cohort 1 200 mg QD) | Upper-airway cough syndrome: Affected/At Risk (%) (Cohort 1 200 mg QD) | Urinary retention: Affected/At Risk (%) (Cohort 1 200 mg QD) | Urinary tract infection: Affected/At Risk (%) (Cohort 1 200 mg QD) | Urinary tract pain: Affected/At Risk (%) (Cohort 1 200 mg QD) | Vascular access complication: Affected/At Risk (%) (Cohort 1 200 mg QD) | Vision blurred: Affected/At Risk (%) (Cohort 1 200 mg QD)
17 (100%) participants: TEAE, participants (%) (Cohort 1 200 mg QD)
3/16 (18.75%): Alanine aminotransferase increased: Affected/At Risk (%) (Cohort 2 200 mg BID)
5 (29): SAE, No. (%) (Cohort 1 200 mg QD)
1/17 (5.88%): Rash: Affected/At Risk (%) (Cohort 1 200 mg QD) | Respiratory tract infection fungal: Affected/At Risk (%) (Cohort 1 200 mg QD) | Respiratory tract infection: Affected/At Risk (%) (Cohort 1 200 mg QD) | Sinusitis: Affected/At Risk (%) (Cohort 1 200 mg QD) | Skin papilloma: Affected/At Risk (%) (Cohort 1 200 mg QD) | Spinal compression fracture: Affected/At Risk (%) (Cohort 1 200 mg QD) | Stomatitis: Affected/At Risk (%) (Cohort 1 200 mg QD) | Testicular pain: Affected/At Risk (%) (Cohort 1 200 mg QD) | Testicular swelling: Affected/At Risk (%) (Cohort 1 200 mg QD) | Thoracic spinal stenosis: Affected/At Risk (%) (Cohort 1 200 mg QD) | Thrombocytosis: Affected/At Risk (%) (Cohort 1 200 mg QD) | Transfusion reaction: Affected/At Risk (%) (Cohort 1 200 mg QD) | Type 2 diabetes mellitus: Affected/At Risk (%) (Cohort 1 200 mg QD) | Urine output decreased: Affected/At Risk (%) (Cohort 1 200 mg QD) | Weight decreased: Affected/At Risk (%) (Cohort 1 200 mg QD) | White blood cell count decreased: Affected/At Risk (%) (Cohort 1 200 mg QD)
1/16 (6.25%): Abdominal pain upper: Affected/At Risk (%) (Cohort 2 200 mg BID) | Actinic keratosis: Affected/At Risk (%) (Cohort 2 200 mg BID) | Arthralgia: Affected/At Risk (%) (Cohort 2 200 mg BID) | Asthenia: Affected/At Risk (%) (Cohort 2 200 mg BID) | Balance disorder: Affected/At Risk (%) (Cohort 2 200 mg BID) | Basal cell carcinoma: Affected/At Risk (%) (Cohort 2 200 mg BID) | Blood alkaline phosphatase increased: Affected/At Risk (%) (Cohort 2 200 mg BID) | Blood chloride decreased: Affected/At Risk (%) (Cohort 2 200 mg BID) | Blood creatine increased: Affected/At Risk (%) (Cohort 2 200 mg BID) | Blood creatinine increased: Affected/At Risk (%) (Cohort 2 200 mg BID) | Bronchial secretion retention: Affected/At Risk (%) (Cohort 2 200 mg BID)
2: Rash maculo-papular: # Events (Cohort 1 200 mg QD) | Rash: # Events (Cohort 1 200 mg QD) | Sinus pain: # Events (Cohort 1 200 mg QD) | Stomatitis: # Events (Cohort 1 200 mg QD) | Vertigo: # Events (Cohort 1 200 mg QD) | Acute kidney injury: # Events (Cohort 2 200 mg BID) | Aspartate aminotransferase increased: # Events (Cohort 2 200 mg BID) | Back pain: # Events (Cohort 2 200 mg BID)
9 (56): All grade URI, No. (%) (Cohort 2 200 mg BID)
5 (31): All grade ALT/AST increased, No. (%) (Cohort 2 200 mg BID) | All grade Diarrhea, No. (%) (Cohort 2 200 mg BID)
2/17 (11.76%): Rash maculo-papular: Affected/At Risk (%) (Cohort 1 200 mg QD) | Sinus pain: Affected/At Risk (%) (Cohort 1 200 mg QD) | Tremor: Affected/At Risk (%) (Cohort 1 200 mg QD) | Vertigo: Affected/At Risk (%) (Cohort 1 200 mg QD) | Vomiting: Affected/At Risk (%) (Cohort 1 200 mg QD)
1: Respiratory tract infection fungal: # Events (Cohort 1 200 mg QD) | Respiratory tract infection: # Events (Cohort 1 200 mg QD) | Sinusitis: # Events (Cohort 1 200 mg QD) | Skin papilloma: # Events (Cohort 1 200 mg QD) | Spinal compression fracture: # Events (Cohort 1 200 mg QD) | Testicular pain: # Events (Cohort 1 200 mg QD) | Testicular swelling: # Events (Cohort 1 200 mg QD) | Thoracic spinal stenosis: # Events (Cohort 1 200 mg QD) | Thrombocytosis: # Events (Cohort 1 200 mg QD) | Transfusion reaction: # Events (Cohort 1 200 mg QD) | Type 2 diabetes mellitus: # Events (Cohort 1 200 mg QD) | Urine output decreased: # Events (Cohort 1 200 mg QD) | Weight decreased: # Events (Cohort 1 200 mg QD) | White blood cell count decreased: # Events (Cohort 1 200 mg QD) | Abdominal pain upper: # Events (Cohort 2 200 mg BID) | Actinic keratosis: # Events (Cohort 2 200 mg BID) | Arthralgia: # Events (Cohort 2 200 mg BID) | Asthenia: # Events (Cohort 2 200 mg BID) | Balance disorder: # Events (Cohort 2 200 mg BID) | Basal cell carcinoma: # Events (Cohort 2 200 mg BID) | Blood alkaline phosphatase increased: # Events (Cohort 2 200 mg BID) | Blood chloride decreased: # Events (Cohort 2 200 mg BID) | Blood creatine increased: # Events (Cohort 2 200 mg BID) | Blood creatinine increased: # Events (Cohort 2 200 mg BID) | Bronchial secretion retention: # Events (Cohort 2 200 mg BID)
8: Anaemia: # Events (Cohort 2 200 mg BID)
17/17 (100%): Total other adverse events: Affected/At Risk (%) (Cohort 1 200 mg QD)
3/17 (17.65%): Weight increased: Affected/At Risk (%) (Cohort 1 200 mg QD)
